Results taken from BindingDB's records for doi:10.7270/Q2M32T6M (Vanderbilt Screening Center for GPCRs, Ion Channels and …, 2009).

Biological target: T1, Solute carrier family 12 member 5 (Homo sapiens, UniProt Q9H2X9)
T1 sequence (Q9H2X9 whole entry): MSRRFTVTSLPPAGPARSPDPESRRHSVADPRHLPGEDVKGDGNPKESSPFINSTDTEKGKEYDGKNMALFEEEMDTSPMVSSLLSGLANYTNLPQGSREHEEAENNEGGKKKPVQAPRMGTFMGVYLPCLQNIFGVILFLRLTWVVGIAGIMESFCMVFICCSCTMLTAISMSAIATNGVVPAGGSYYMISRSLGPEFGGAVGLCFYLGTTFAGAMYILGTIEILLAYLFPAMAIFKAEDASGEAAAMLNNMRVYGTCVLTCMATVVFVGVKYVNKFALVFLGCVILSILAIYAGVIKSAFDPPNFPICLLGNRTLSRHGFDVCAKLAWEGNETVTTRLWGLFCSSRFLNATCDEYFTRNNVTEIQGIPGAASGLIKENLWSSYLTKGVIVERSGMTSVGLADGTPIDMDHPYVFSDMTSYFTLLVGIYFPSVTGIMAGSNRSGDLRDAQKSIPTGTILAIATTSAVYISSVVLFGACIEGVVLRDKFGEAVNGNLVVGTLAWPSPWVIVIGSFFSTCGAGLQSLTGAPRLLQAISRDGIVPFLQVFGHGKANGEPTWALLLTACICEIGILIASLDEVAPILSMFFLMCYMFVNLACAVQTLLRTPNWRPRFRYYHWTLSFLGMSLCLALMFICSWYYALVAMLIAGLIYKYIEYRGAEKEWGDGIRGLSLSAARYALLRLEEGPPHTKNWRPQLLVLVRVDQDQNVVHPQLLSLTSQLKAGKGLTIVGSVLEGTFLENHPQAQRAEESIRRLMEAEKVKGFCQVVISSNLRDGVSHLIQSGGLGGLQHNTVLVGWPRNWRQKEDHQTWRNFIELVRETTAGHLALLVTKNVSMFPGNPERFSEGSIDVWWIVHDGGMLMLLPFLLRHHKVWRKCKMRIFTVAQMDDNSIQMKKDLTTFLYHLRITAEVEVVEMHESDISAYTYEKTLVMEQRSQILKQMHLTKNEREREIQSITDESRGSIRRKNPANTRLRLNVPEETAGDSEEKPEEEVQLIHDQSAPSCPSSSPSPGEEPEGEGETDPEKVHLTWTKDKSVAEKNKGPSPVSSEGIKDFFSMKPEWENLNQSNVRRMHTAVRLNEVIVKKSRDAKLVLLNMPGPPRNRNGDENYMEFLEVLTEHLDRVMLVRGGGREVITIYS
Assay: concentration-response of KCC2 transport modulators – cell-based, HEK293 KCC2, FluoZin-2 fluorescence, dose response (AID 1736)
Settings: not given

Structure (SMILES) | EC50
O=C(NCCCCc1ccccc1)C1CC(c2ccccc2[N+](=O)[O-])=NO1 (stereo not given) [3-(2-nitrophenyl)-N-(4-phenylbutyl)-2-isoxazoline-5-carboxamide] | 5.52 µM
O=C(CCSCCc1ccccn1)Nc1ccc(Cc2ccncc2)cc1 [3-(2-pyridin-2-ylethylsulfanyl)-N-[4-(pyridin-4-ylmethyl)phenyl]propanamide] | 72.4 µM
O=S(=O)(NC1CCCC1)c1cccc(S(=O)(=O)N2CCC(n3nnc4ccccc43)CC2)c1 [3-(4-Benzotriazol-1-yl-piperidine-1-sulfonyl)-N-cyclopentyl-benzenesulfonamide] | 4.05 µM
CCN(CC)c1ccc2c(C)c(-c3ccc(N)cc3)c(=O)oc2c1 [3-(4-aminophenyl)-7-(diethylamino)-4-methyl-1-benzopyran-2-one] | 1.15 µM
CN1c2ccccc2Oc2nnc(N3CCN(Cc4ccccc4)CC3)cc21 [3-(4-benzylpiperazin-1-yl)-5-methylpyridazino[3,4-b][1,4]benzoxazine] | 1.88 µM
CCOc1ccc(C(CC(=O)O)NC(=O)C(Sc2ccccc2)c2ccccc2)cc1 (stereo not given) [3-(4-ethoxyphenyl)-3-[(2-phenyl-2-phenylsulfanyl-ethanoyl)amino]propanoic acid] | 23.3 µM
CS/C(=N\Cc1ccc(F)cc1)NS(=O)(=O)c1cccs1 [3-(4-fluorobenzyl)-2-methyl-1-(2-thienylsulfonyl)isothiourea] | 0.498 µM
Cc1ccc(OCCC(=O)OCC(=O)N2c3ccccc3CC2C)cc1 (stereo not given) [3-(4-methylphenoxy)propanoic acid [2-(2-methyl-2,3-dihydroindol-1-yl)-2-oxoethyl] ester] | 2.68 µM
COC(=O)c1sccc1NC(=S)OC [3-(methoxycarbothioylamino)thiophene-2-carboxylic acid methyl ester] | 1.48 µM
O=C(Nc1ccc(Cc2ccncc2)cc1)c1cccc([N+](=O)[O-])c1 [3-Nitro-N-(4-pyridin-4-ylmethyl-phenyl)-benzamide] | 4.96 µM
Cc1ccc(C(=O)O)cc1-c1ccc(C=C2NC(=O)N(c3ccccc3)C2=O)o1 [3-[5-[(E)-(2,5-dioxo-1-phenylimidazolidin-4-ylidene)methyl]furan-2-yl]-4-methylbenzoic acid] | 10.7 µM
O=C(O)CCN(Cc1ccccc1)S(=O)(=O)c1c(Cl)cccc1Cl [3-[(2,6-dichlorophenyl)sulfonyl-(phenylmethyl)amino]propanoic acid] | 86000 µM
Fc1ccc(CSc2nncn2NC/C=C/c2ccccc2)cc1 [3-[(4-fluorobenzyl)thio]-N-(3-phenyl-2-propen-1-yl)-4H-1,2,4-triazol-4-amine] | 4.5 µM
O=C(OCC(=O)N1CCN(C(=O)c2ccco2)CC1)c1sc2ccccc2c1Cl [3-chloro-1-benzothiophene-2-carboxylic acid [2-[4-[2-furanyl(oxo)methyl]-1-piperazinyl]-2-oxoethyl] ester] | 1.6 µM
C=C(C)Cn1c(N2CCC(Cc3ccccc3)CC2)nc2c1c(=O)[nH]c(=O)n2C [3-methyl-7-(2-methylprop-2-enyl)-8-[4-(phenylmethyl)-1-piperidinyl]purine-2,6-dione] | 15.8 µM
O=C(c1cc(COc2c(F)cccc2F)on1)N1CCC(c2ccncc2)CC1 [4-[1-({5-[(2,6-difluorophenoxy)methyl]isoxazol-3-yl}carbonyl)piperidin-4-yl]pyridine] | 17.9 µM
CCOC(=O)c1cc2c(ccn2-c2ccc(F)cc2)n1CC(=O)NC(C)(C)C [4-[2-(tert-butylamino)-2-keto-ethyl]-1-(4-fluorophenyl)pyrrolo[3,2-b]pyrrole-5-carboxylic acid ethyl ester] | 19.2 µM
COc1ccc(-c2cc(CCCC(=O)NCCc3ccccc3)no2)cc1 [4-[5-(4-methoxyphenyl)-1,2-oxazol-3-yl]-N-(2-phenylethyl)butanamide] | 0.642 µM
Cc1n[nH]c(O)c1C(c1ccc(-c2ccc(F)cc2)o1)c1c(C)n[nH]c1O [4-[[5-(4-fluorophenyl)furan-2-yl]-(3-methyl-5-oxo-1,2-dihydropyrazol-4-yl)methyl]-5-methyl-1,2-dihydropyrazol-3-one] | 9.41 µM
COc1ccc(S(=O)(=O)N(C)CC(=O)N2CCN(Cc3ccccc3)CC2)cc1C [4-methoxy-N,3-dimethyl-N-[2-oxidanylidene-2-[4-(phenylmethyl)piperazin-1-yl]ethyl]benzenesulfonamide] | 2.26 µM
Cc1ccc(CSCCNC(=O)c2ccc(C)cc2)cc1 [4-methyl-N-[2-[(4-methylbenzyl)thio]ethyl]benzamide] | 15.4 µM

The remaining lines, values ahead:

EC50 | Structure (SMILES)
1.65 µM | O=C(Cn1cnc2c(nnn2Cc2ccc(F)cc2)c1=O)N1CCN(c2ccccc2)CC1 [3-(4-fluorobenzyl)-6-[2-keto-2-(4-phenylpiperazino)ethyl]triazolo[4,5-d]pyrimidin-7-one]
47.1 µM | COc1cc(OC)c(C2=NOC(C(=O)NCCc3ccccc3)C2)cc1Cl (stereo not given) [3-(5-chloranyl-2,4-dimethoxy-phenyl)-N-(2-phenylethyl)-4,5-dihydro-1,2-oxazole-5-carboxamide]
11 µM | CCOc1ccc2nc(Sc3cc(O)n(-c4cccc(OC)c4)c3O)sc2c1 [3-(6-Ethoxy-benzothiazol-2-ylsulfanyl)-1-(3-methoxy-phenyl)-pyrrolidine-2,5-dione]
0.677 µM | O=C(O)CCn1c(SCc2cccc3ccccc23)nc2ccccc21 [3-[2-(1-naphthalenylmethylthio)-1-benzimidazolyl]propanoic acid]
4.25 µM | O=C(O)CCc1cc(I)c(Oc2ccc(O)c(I)c2)c(I)c1 [3-[4-(4-hydroxy-3-iodophenoxy)-3,5-diiodophenyl]propanoic acid]
2.69 µM | Cc1ccc(S(=O)(=O)N(CCC(=O)O)Cc2ccc(Cl)cc2)cc1 [3-[(4-chlorobenzyl)-tosyl-amino]propionic acid]
6.01 µM | CC1(CCc2ccccc2)NC(=O)N(Cc2nnc(-c3ccccc3Br)o2)C1=O (stereo not given) [3-[[5-(2-bromophenyl)-1,3,4-oxadiazol-2-yl]methyl]-5-methyl-5-(2-phenylethyl)imidazolidine-2,4-dione]
5.41 µM | CCOc1cc(S(=O)(=O)NCc2ccccc2)ccc1F [3-ethoxy-4-fluoranyl-N-(phenylmethyl)benzenesulfonamide]
3.27 µM | COCCNS(=O)(=O)c1ccc(-c2ccc(Cl)cc2)cc1 [4'-chloro-N-(2-methoxyethyl)-4-biphenylsulfonamide]
0.733 µM | Cc1c(N=C2Nc3cccc4cccc2c34)c(=O)n(-c2ccccc2)n1C [4-(2-benzo[cd]indolylamino)-1,5-dimethyl-2-phenyl-3-pyrazolone]
11.5 µM | O=C(OCC(=O)N1CCc2ccccc2C1)c1ccc(N2CCOCC2)c([N+](=O)[O-])c1 [4-(4-morpholinyl)-3-nitrobenzoic acid [2-(3,4-dihydro-1H-isoquinolin-2-yl)-2-oxoethyl] ester]
9.74 µM | O=C(NC(=S)NNC(=O)c1cnccn1)c1ccc(Cl)cc1 [4-Chloro-N-[N'-(pyrazine-2-carbonyl)-hydrazinocarbothioyl]-benzamide]
27.3 µM | COCCN1C(=O)/C(=C/c2ccc(OCc3ccc(C(=O)O)cc3)c(OC)c2)S/C1=N/c1ccccc1 [4-[(2-methoxy-4-{[3-(2-methoxyethyl)-4-oxo-2-(phenylimino)-1,3-thiazolidin-5-ylidene]methyl}phenoxy)methyl]benzoic acid]
3290 µM | Cc1nn(-c2ccc(F)cc2)c(C)c1NS(=O)(=O)c1ccc(Cl)cc1 [4-chloranyl-N-[1-(4-fluorophenyl)-3,5-dimethyl-pyrazol-4-yl]benzenesulfonamide]
14.9 µM | O=S(=O)(Nc1nc2ccccc2nc1N1CCN(c2ccccn2)CC1)c1ccc(Cl)cc1 [4-chloranyl-N-[3-(4-pyridin-2-ylpiperazin-1-yl)quinoxalin-2-yl]benzenesulfonamide]
0.283 µM | Sc1nnc(Cc2cccc3ccccc23)o1 [5-(1-naphthalenylmethyl)-3H-1,3,4-oxadiazole-2-thione]

Same assay, conditions: inactive by the depositor's call

EC50 | Structure (SMILES)
33.2 µM | Cc1nn(-c2ccccc2)c2sc(C(=O)N(Cc3ccco3)C(C)C(=O)NC(C)(C)C)cc12 (stereo not given) [3-Methyl-1-phenyl-1H-thieno[2,3-c]pyrazole-5-carboxylic acid (1-tert-butylcarbamoyl-ethyl)-furan-2-ylmethyl-amide]
4.51 µM | O=C(Nc1ccn(Cc2ccccc2)n1)c1cccc(F)c1 [3-fluoranyl-N-[1-(phenylmethyl)pyrazol-3-yl]benzamide]
6.59 µM | Cc1ccc(S(=O)(=O)NCc2ccc(C(=O)N3CCN(Cc4ccccc4)CC3)cc2)cc1 [4-methyl-N-[[4-[4-(phenylmethyl)piperazin-1-yl]carbonylphenyl]methyl]benzenesulfonamide]
